In US6737383B1, “Herbicidal oxadiazolidines” (priority 1999, dated 2004):

Experiments:
surinam grass = experiment: Test B pre/postemergence surinam grass; format: in vivo, Brachiaria decumbens
Summary of the method: (§1)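 Test chemicals in a non-phytotoxic solvent mixture with surfactant were sprayed preemergence onto planted seeds and postemergence onto plants 2 to 18 cm tall (1- to 4-leaf stage). After twelve to sixteen days in a greenhouse, injury was visually rated against untreated controls from 0 (no effect) to 10 (complete control).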

rape = experiment: Test B pre/postemergence rape; format: in vivo, Brassica napus
Summary of the method: as §1

purple nutsedge = experiment: Test B pre/postemergence purple nutsedge; format: in vivo, Cyperus rotundus
Summary of the method: as §1

wild oat = experiment: Test B pre/postemergence wild oat; format: in vivo, Avena fatua
Summary of the method: as §1

smallflower flatsedge = experiment: Test B flood test smallflower flatsedge; format: in vivo, Cyperus difformis
Summary of the method: (§2)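 Flood test on plants grown to the 2-leaf stage; treated plants kept in greenhouse twelve to sixteen days, then visually rated against controls on a 0 (no effect) to 10 (complete control) scale.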

sugar beet = experiment: Test B pre/postemergence sugar beet; format: in vivo, Beta vulgaris
Summary of the method: as §1

corn = experiment: Test B pre/postemergence corn; format: in vivo, Zea mays
Summary of the method: as §1

velvetleaf = experiment: Test B pre/postemergence velvetleaf; format: in vivo, Abutilon theophrasti
Summary of the method: as §1

morningglory = experiment: Test B pre/postemergence morningglory; format: in vivo, Ipomoea hederacea
Summary of the method: as §1

crabgrass = experiment: Test B pre/postemergence crabgrass; format: in vivo, Digitaria sanguinalis
Summary of the method: as §1

blackgrass = experiment: Test B pre/postemergence blackgrass; format: in vivo, Alopecurus myosuroides
Summary of the method: as §1

cocklebur = experiment: Test B pre/postemergence cocklebur; format: in vivo, Xanthium strumarium
Summary of the method: as §1

soybean = experiment: Test B pre/postemergence soybean; format: in vivo, Glycine max
Summary of the method: as §1

giant foxtail = experiment: Test B pre/postemergence giant foxtail; format: in vivo, Setaria faberii
Summary of the method: as §1

bamyardgrass = experiment: Test B flood test barnyardgrass; format: in vivo, Echinochloa crus-galli
Summary of the method: as §2

pigweed = experiment: Test B pre/postemergence pigweed; format: in vivo, Amaranthus retroflexus
Summary of the method: as §1

[1] = Postemergence, Rate 62 g/ha, scale 0 to 10, 0 is no effect, 10 is complete control
[2] = Postemergence, Rate 250 g/ha, scale 0 to 10, 0 no effect, 10 complete control
[3] = Preemergence, Rate 31 g/ha, visual rating, scale 0 to 10 (0 no effect, 10 complete control)
[4] = Preemergence, Rate 62 g/ha, scale 0 to 10, 0 is no effect, 10 is complete control
[5] = Preemergence, Rate 125 g/ha, scale 0 to 10 (0 no effect, 10 complete control)
[6] = Preemergence, Rate 250 g/ha, scale of 0 to 10 where 0 is no effect and 10 is complete control
[7] = Rate 31 g/ha, Postemergence, scale 0 to 10
[8] = Rate 125 g/ha, Postemergence, scale 0 to 10, 0 no effect, 10 complete control
[9] = Rate 125 g/ha, Postemergence section (flood test species), scale 0 to 10, 0 no effect, 10 complete control
[10] = flood test, listed under Postemergence, Rate 250 g/ha, scale 0 to 10, 0 no effect, 10 complete control

In the case of `COc1ccc(-n2c(=O)on(C(=O)N(c3ccc(F)cc3F)C(C)C)c2=O)c(OC)c1` [Compound 32], the “B. signalgrass plant response rating” value (surinam grass; [1]) is reported as 0, the “B. signalgrass plant response rating” value (surinam grass; [2]) is reported as 0 and the “B. signalgrass plant response rating” value (surinam grass; [3]) is reported as 0. For the same molecule, the “Plant response rating, B. signalgrass” value (surinam grass; [4]) was 0, the “Plant response rating, B. signalgrass” value (surinam grass; [5]) was 0 and the “Plant response rating, B. signalgrass” value (surinam grass; [6]) was 2. The “B. signalgrass plant response rating” value (surinam grass; [7]) was 0, the “B. signalgrass plant response rating” value (surinam grass; [8]) was 0 and the “Rape plant response rating” value (rape; [1]) was 0. For the same molecule, the “Rape plant response rating” value (rape; [2]) was 0, the “Rape plant response rating” value (rape; [3]) was 0 and the “Plant response rating, Rape” value (rape; [4]) was 0. For the same molecule, the “Plant response rating, Rape” value (rape; [5]) was 0, the “Plant response rating, Rape” value (rape; [6]) was 0 and the “Rape plant response rating” value (rape; [7]) was 0. The “Rape plant response rating” value (rape; [8]) was 0, the “Nutsedge plant response rating” value (purple nutsedge; [1]) was 0 and the “Nutsedge plant response rating” value (purple nutsedge; [2]) was 0. For the same molecule, the “Nutsedge plant response rating” value (purple nutsedge; [3]) was 0, the “Plant response rating, Nutsedge” value (purple nutsedge; [4]) was 0 and the “Plant response rating, Nutsedge” value (purple nutsedge; [5]) was 0. The “Plant response rating, Nutsedge” value (purple nutsedge; [6]) was 0, the “Nutsedge plant response rating” value (purple nutsedge; [7]) was 0 and the “Nutsedge plant response rating” value (purple nutsedge; [8]) was 0. For the same molecule, the “Wild oats plant response rating” value (wild oat; [1]) was 0, the “Wild oats plant response rating” value (wild oat; [2]) was 0 and the “Wild oats plant response rating” value (wild oat; [3]) was 0. The “Plant response rating, Wild oats” value (wild oat; [5]) was 0, the “Plant response rating, Wild oats” value (wild oat; [6]) was 2 and the “Wild oats plant response rating” value (wild oat; [8]) was 0. For the same molecule, the “S. Flatsedge plant response rating” value (smallflower flatsedge; [1]) was 0, the “S. Flatsedge plant response rating” value (smallflower flatsedge; [9]) was 0 and the “S. Flatsedge plant response rating” value (smallflower flatsedge; [10]) was 2. For the same molecule, the “Sugarbeets plant response rating” value (sugar beet; [1]) was 0, the “Sugarbeets plant response rating” value (sugar beet; [2]) was 0 and the “Sugarbeets plant response rating” value (sugar beet; [3]) was 0. The “Plant response rating, Sugarbeets” value (sugar beet; [4]) was 0, the “Plant response rating, Sugarbeets” value (sugar beet; [5]) was 0 and the “Plant response rating, Sugarbeets” value (sugar beet; [6]) was 0. For the same molecule, the “Sugarbeets plant response rating” value (sugar beet; [8]) was 0, the “Corn plant response rating” value (corn; [1]) was 0 and the “Corn plant response rating” value (corn; [2]) was 0. The “Corn plant response rating” value (corn; [3]) was 0, the “Plant response rating, Corn” value (corn; [4]) was 0 and the “Plant response rating, Corn” value (corn; [5]) was 0. For the same molecule, the “Plant response rating, Corn” value (corn; [6]) was 0, the “Corn plant response rating” value (corn; [7]) was 0 and the “Corn plant response rating” value (corn; [8]) was 0. The “Velvetleaf plant response rating” value (velvetleaf; [1]) was 0, the “Velvetleaf plant response rating” value (velvetleaf; [2]) was 0 and the “Velvetleaf plant response rating” value (velvetleaf; [3]) was 0. The “Plant response rating, Velvetleaf” value (velvetleaf; [4]) was 0, the “Plant response rating, Velvetleaf” value (velvetleaf; [5]) was 0 and the “Plant response rating, Velvetleaf” value (velvetleaf; [6]) was 0. For the same molecule, the “Velvetleaf plant response rating” value (velvetleaf; [8]) was 0, the “Morningglory plant response rating” value (morningglory; [1]) was 6 and the “Morningglory plant response rating” value (morningglory; [2]) was 8. The “Morningglory plant response rating” value (morningglory; [3]) was 0, the “Plant response rating, Morningglory” value (morningglory; [4]) was 0 and the “Plant response rating, Morningglory” value (morningglory; [5]) was 0. The “Plant response rating, Morningglory” value (morningglory; [6]) was 2, the “Morningglory plant response rating” value (morningglory; [7]) was 6 and the “Morningglory plant response rating” value (morningglory; [8]) was 7. For the same molecule, the “Crabgrass plant response rating” value (crabgrass; [1]) was 0, the “Crabgrass plant response rating” value (crabgrass; [2]) was 3 and the “Crabgrass plant response rating” value (crabgrass; [3]) was 0. The “Plant response rating, Crabgrass” value (crabgrass; [4]) was 4, the “Plant response rating, Crabgrass” value (crabgrass; [5]) was 6 and the “Plant response rating, Crabgrass” value (crabgrass; [6]) was 9. The “Crabgrass plant response rating” value (crabgrass; [7]) was 0, the “Crabgrass plant response rating” value (crabgrass; [8]) was 2 and the “Blackgrass plant response rating” value (blackgrass; [1]) was 0. For the same molecule, the “Blackgrass plant response rating” value (blackgrass; [2]) was 7, the “Blackgrass plant response rating” value (blackgrass; [3]) was 0 and the “Plant response rating, Blackgrass” value (blackgrass; [4]) was 1. For the same molecule, the “Plant response rating, Blackgrass” value (blackgrass; [5]) was 2, the “Plant response rating, Blackgrass” value (blackgrass; [6]) was 4 and the “Blackgrass plant response rating” value (blackgrass; [7]) was 0. For the same molecule, the “Blackgrass plant response rating” value (blackgrass; [8]) was 0, the “Cocklebur plant response rating” value (cocklebur; [1]) was 0 and the “Cocklebur plant response rating” value (cocklebur; [2]) was 0. The “Cocklebur plant response rating” value (cocklebur; [3]) was 0, the “Plant response rating, Cocklebur” value (cocklebur; [4]) was 0 and the “Plant response rating, Cocklebur” value (cocklebur; [5]) was 0. For the same molecule, the “Plant response rating, Cocklebur” value (cocklebur; [6]) was 0, the “Cocklebur plant response rating” value (cocklebur; [7]) was 0 and the “Cocklebur plant response rating” value (cocklebur; [8]) was 0. For the same molecule, the “Soybean plant response rating” value (soybean; [1]) was 2, the “Soybean plant response rating” value (soybean; [2]) was 2 and the “Soybean plant response rating” value (soybean; [3]) was 0. The “Plant response rating, Soybean” value (soybean; [4]) was 0, the “Plant response rating, Soybean” value (soybean; [5]) was 0 and the “Plant response rating, Soybean” value (soybean; [6]) was 0. The “Soybean plant response rating” value (soybean; [8]) was 2, the “Giant foxtail plant response rating” value (giant foxtail; [1]) was 0 and the “Giant foxtail plant response rating” value (giant foxtail; [2]) was 0. The “Giant foxtail plant response rating” value (giant foxtail; [3]) was 1, the “Plant response rating, Giant foxtail” value (giant foxtail; [4]) was 4 and the “Plant response rating, Giant foxtail” value (giant foxtail; [5]) was 8. The “Plant response rating, Giant foxtail” value (giant foxtail; [6]) was 9, the “Giant foxtail plant response rating” value (giant foxtail; [7]) was 0 and the “Giant foxtail plant response rating” value (giant foxtail; [8]) was 0. For the same molecule, the “Barnyardgrass plant response rating” value (bamyardgrass; [1]) was 0, the “Barnyardgrass plant response rating” value (bamyardgrass; [9]) was 0 and the “Barnyardgrass plant response rating” value (bamyardgrass; Rate 500 g/ha, Postemergence section of Table B, 0 to 10 scale (0 no effect, 10 complete control)) was 9. The “Barnyardgrass plant response rating” value (bamyardgrass; [10]) was 8, the “Redroot pigweed plant response rating” value (pigweed; [1]) was 0 and the “Redroot pigweed plant response rating” value (pigweed; [2]) was 0. The “Redroot pigweed plant response rating” value (pigweed; [3]) was 0, the “Plant response rating, Redroot pigweed” value (pigweed; [4]) was 0 and the “Plant response rating, Redroot pigweed” value (pigweed; [5]) was 0. For the same molecule, the “Plant response rating, Redroot pigweed” value (pigweed; [6]) was 0, the “Redroot pigweed plant response rating” value (pigweed; [7]) was 0 and the “Redroot pigweed plant response rating” value (pigweed; [8]) was 0.
